The source made the active and inactive calls. The rule behind the calls is not given here.
What was measured:
[1] = biological target: T1, von Hippel-Lindau disease tumor suppressor/Cyclin-dependent kinase 12 (Homo sapiens, UniProt P40337+Q9NYV4); assay: PROTAC activity at VHL/CDK12 in human HeLa cells assessed as induction of CDK12 degradation measured after 24 hrs by fluorescence based cytoblot assay; type: cell-based
Bel-7402 = assay: Antiproliferative activity against human Bel-7402 cells assessed as inhibition of cell growth measured after 96 hrs by SRB assay; type: functional, cell-based; conditions: Bel-7402, 96 h
[2] = Cytotoxicity against human L02 cells assessed as inhibition of cell growth measured after 96 hrs by SRB assay; type: toxicity, cell-based
[3] = biological target: T1, von Hippel-Lindau disease tumor suppressor/Cyclin-dependent kinase 12; assay: PROTAC activity at VHL/CDK12 in human HeLa cells assessed as induction of CDK12 degradation measured after 24 hrs by Western blotting analysis; type: cell-based
HeLa = assay: Antiproliferative activity against human HeLa cells assessed as inhibition of cell growth measured after 96 hrs by SRB assay; type: functional, cell-based
HCT-116 = assay: Antiproliferative activity against human HCT-116 cells assessed as inhibition of cell growth measured after 96 hrs by SRB assay; type: functional, cell-based; conditions: HCT-116, 96 h
MDA-MB-231 [4] = assay: Antiproliferative activity against human MDA-MB-231 cells assessed as inhibition of cell growth measured after 96 hrs by SRB assay; type: functional, cell-based; conditions: MDA-MB-231, 96 h
MDA-MB-231 [5] = assay: Synergistic antiproliferative activity against human MDA-MB-231 cells assessed as combination index at 500 nM incubated for 14 days in presence of olaparib by sulforhodamine B staining based Chou-Talalay method; type: functional; conditions: time 14 day
[6] = biological target: Protein cereblon/Cyclin-dependent kinase 12 (Homo sapiens) (UniProt Q9NYV4+Q96SW2); assay: PROTAC activity at CRBN/CDK12 in human HeLa cells assessed as induction of CDK12 degradation measured after 24 hrs by fluorescence based cytoblot assay; type: cell-based
Protein cereblon/Cyclin-dependent kinase 12 (Homo sapiens), sequence (Q96SW2 whole entry, looked up): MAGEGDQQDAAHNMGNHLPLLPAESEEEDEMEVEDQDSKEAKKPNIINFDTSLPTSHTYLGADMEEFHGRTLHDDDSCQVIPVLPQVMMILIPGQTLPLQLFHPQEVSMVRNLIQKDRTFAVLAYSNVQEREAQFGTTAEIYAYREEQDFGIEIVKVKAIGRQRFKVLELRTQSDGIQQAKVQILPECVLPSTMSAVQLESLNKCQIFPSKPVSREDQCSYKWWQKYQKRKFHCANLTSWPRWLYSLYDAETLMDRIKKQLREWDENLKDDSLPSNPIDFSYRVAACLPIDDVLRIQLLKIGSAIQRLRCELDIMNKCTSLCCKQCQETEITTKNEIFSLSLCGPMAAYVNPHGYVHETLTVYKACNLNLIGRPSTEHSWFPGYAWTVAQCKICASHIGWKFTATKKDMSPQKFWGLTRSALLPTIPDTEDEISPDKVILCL
Protein cereblon/Cyclin-dependent kinase 12 (Homo sapiens), sequence (Q9NYV4 whole entry, looked up): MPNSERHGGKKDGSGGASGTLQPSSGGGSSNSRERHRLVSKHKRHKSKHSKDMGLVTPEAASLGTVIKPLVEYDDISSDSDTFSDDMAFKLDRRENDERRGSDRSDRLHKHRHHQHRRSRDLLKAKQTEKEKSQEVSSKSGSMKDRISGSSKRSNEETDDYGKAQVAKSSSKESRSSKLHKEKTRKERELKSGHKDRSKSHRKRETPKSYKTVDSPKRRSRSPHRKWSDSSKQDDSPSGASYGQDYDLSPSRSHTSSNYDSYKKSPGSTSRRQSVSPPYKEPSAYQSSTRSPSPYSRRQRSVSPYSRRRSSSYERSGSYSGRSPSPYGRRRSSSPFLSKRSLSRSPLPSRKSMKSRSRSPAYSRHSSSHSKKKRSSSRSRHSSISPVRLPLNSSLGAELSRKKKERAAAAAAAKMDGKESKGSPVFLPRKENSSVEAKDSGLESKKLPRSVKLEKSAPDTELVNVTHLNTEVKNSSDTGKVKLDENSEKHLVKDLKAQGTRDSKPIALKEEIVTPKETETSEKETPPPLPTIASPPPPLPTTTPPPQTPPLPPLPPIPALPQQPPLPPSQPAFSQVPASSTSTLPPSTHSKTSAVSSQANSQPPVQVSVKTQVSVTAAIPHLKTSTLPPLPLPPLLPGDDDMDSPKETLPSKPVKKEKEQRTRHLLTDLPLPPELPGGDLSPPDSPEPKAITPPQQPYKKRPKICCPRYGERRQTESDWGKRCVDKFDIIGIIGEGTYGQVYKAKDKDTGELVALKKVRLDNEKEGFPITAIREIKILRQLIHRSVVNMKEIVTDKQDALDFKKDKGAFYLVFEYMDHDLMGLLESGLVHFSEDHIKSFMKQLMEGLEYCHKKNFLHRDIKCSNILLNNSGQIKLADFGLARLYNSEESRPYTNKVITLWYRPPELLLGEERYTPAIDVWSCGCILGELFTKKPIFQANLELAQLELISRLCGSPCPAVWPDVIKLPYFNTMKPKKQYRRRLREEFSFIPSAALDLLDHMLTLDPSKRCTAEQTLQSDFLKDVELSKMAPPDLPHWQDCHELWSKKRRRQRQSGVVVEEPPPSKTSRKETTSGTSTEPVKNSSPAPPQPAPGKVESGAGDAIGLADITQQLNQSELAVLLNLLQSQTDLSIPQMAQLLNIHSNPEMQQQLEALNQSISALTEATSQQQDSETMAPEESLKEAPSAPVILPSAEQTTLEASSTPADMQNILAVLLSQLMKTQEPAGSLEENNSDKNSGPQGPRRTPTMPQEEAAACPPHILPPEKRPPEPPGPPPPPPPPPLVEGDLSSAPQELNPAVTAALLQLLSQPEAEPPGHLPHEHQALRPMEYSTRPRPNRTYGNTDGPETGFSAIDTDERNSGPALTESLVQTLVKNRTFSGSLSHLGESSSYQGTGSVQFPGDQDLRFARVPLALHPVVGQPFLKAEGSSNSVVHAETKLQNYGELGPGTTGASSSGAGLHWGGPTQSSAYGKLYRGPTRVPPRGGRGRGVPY

T1 sequence (P40337 whole entry): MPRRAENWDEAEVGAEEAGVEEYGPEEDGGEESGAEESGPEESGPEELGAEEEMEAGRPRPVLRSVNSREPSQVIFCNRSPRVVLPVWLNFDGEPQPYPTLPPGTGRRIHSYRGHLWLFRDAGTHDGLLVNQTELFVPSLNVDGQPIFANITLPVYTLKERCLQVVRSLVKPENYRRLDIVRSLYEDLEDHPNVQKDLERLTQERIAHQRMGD
T1 sequence (Q9NYV4 whole entry): as the sequence (Q9NYV4 whole entry, looked up) above

Row | Compound | DC50 [1] | IC50 (Bel-7402) | DC50 [3] | IC50 (HeLa) | IC50 (HCT-116) | IC50 (MDA-MB-231 [4]) | Activity [6] | IC50 at 96 h [2] | CI (MDA-MB-231 [5])
1 | Cc1ncsc1-c1ccc([C@H](C)NC(=O)[C@@H]2C[C@@H](O)CN2C(=O)[C@@H](NC(=O)CCCCCCNC(=O)CN2CCC[C@@H](Nc3ncc(Cl)c(Nc4ccccc4S(=O)(=O)C(C)C)n3)C2)C(C)(C)C)cc1 | 74 nM | 491 nM | 85 nM | 316 nM | 665 nM | 468 nM | – | > 1000 nM | 0.17
2 | CC(C)S(=O)(=O)c1ccccc1Nc1nc(N[C@@H]2CCCN(CCCCCCCNC(=O)COc3cccc4c3C(=O)N(C3CCC(=O)NC3=O)C4=O)C2)ncc1Cl (some centres not stated) | 57 nM | – | 83 nM | – | – | – | – | – | –
3 | CN(C)C/C=C/C(=O)Nc1ccc(C(=O)N2CCC[C@@H](Nc3ncc(Cl)c(-c4c[nH]c5ccccc45)n3)C2)cc1 | – | 650 nM | – | 106 nM | 89 nM | 133 nM | – | 119 nM | –

The next lines start with results.

Row | DC50 [1] | IC50 (Bel-7402) | DC50 [3] | IC50 (HeLa) | IC50 (HCT-116) | IC50 (MDA-MB-231 [4]) | Activity [6] | Compound | IC50 at 96 h [2] | CI (MDA-MB-231 [5])
4 | – | – | – | – | – | – | Active | CC(C)S(=O)(=O)c1ccccc1Nc1nc(N[C@@H]2CCCN(CCCCc3cn(CCCCCCCOc4ccc5c(c4)C(=O)N(C4CCC(=O)NC4=O)C5=O)nn3)C2)ncc1Cl (some centres not stated) | – | –
5 | – | – | – | – | – | – | Active | CC(C)S(=O)(=O)c1ccccc1Nc1nc(N[C@@H]2CCCN(CCCCc3cn(CCCCCCCOc4cccc5c4C(=O)N(C4CCC(=O)NC4=O)C5=O)nn3)C2)ncc1Cl (some centres not stated) | – | –

From ChEMBL document CHEMBL5346915, “A practical "preTACs-cytoblot" platform accelerates the streamlined development of PROTAC-based protein degraders” (Eur J Med Chem, 2023)
